Usually pIC50 stands for −log10 of the IC50, conventionally taken in molar units. A higher pIC50 goes with a low IC50.

In one test the target is SRC (Homo sapiens, UniProt P12931). Description: Sandwich ELISA kinase assay. Type of test: biochemical. The note with it: ATP Km. On the procedure: (§1) For RAF kinases, detailed assay information was described in ref.[18] Briefly, the kinase activity of BRAF WT, BRAF V600E, or CRAF was measured using an AlphaScreen assay (Perkin Elmer, MA) monitoring MEK1/2 phosphorylation at Ser217/221. For CDK2 and CDK4 kinases, activity was also measured by AlphaScreen, monitoring phosphorylation of biotin Rb peptide at Ser780. Similarly, MAP3K7, CSF1R and JAK2 kinase activity was measured by phosphorylation of their biotinylated substrates MKK6 kinase dead protein at Ser271/Thr275, or tyrosine phosphorylation of pEY or Tyk2 Tyr1054/1055 peptides, respectively. CSK, IGF1R, EGFR, FGFR1 and SRC kinase activity was measured using a sandwich ELISA detecting phosphorylated poly EAY peptide with a HRP conjugated phosphotyrosine antibody and TMB substrate, while p38 kinase activity was measured by monitoring phosphorylation of MBP protein with radiolabeled ^33P-ATP in a filter binding format. All assays were screened under respective ATP Km conditions and inhibitor IC50s were derived from either 5 (RAF kinases, CDK2, CDK4, MAP3K7, JAK2), 10 (CSK, IGF1R, EGFR, FGFR1, SRC) or 11 (p38, CSF1R) point compound dose response.
In general terms: In an ELISA, binding on a coated surface is turned into a signal by an enzyme label.

A further test addresses CSK (Homo sapiens, UniProt P41240). Description: Sandwich ELISA kinase assay. Type of test: biochemical. As to conditions: ATP Km. On the procedure:
as §1

Another test has as its target EGFR (Homo sapiens, UniProt P00533). Description: Sandwich ELISA kinase assay. Type of test: biochemical. The note with it: ATP Km. As for the experimental part: as §1
Another test has as its target IGF1R (Homo sapiens, UniProt P08069). The experiment in a line: Sandwich ELISA kinase assay. It counts as biochemical. The note with it: ATP Km. On the procedure:
as §1

For the next test, the target named is FGFR (Homo sapiens, UniProt P11362). Description: Sandwich ELISA kinase assay. It counts as biochemical. As to conditions: ATP Km. On the procedure: as §1
The test system of test [1] is RKO, HT-29, DiFi and Caco-2 cells. The experiment in a line: Western blot analysis in selected CRC cell lines. It counts as cell-based, human. As to conditions: four CRC cell lines. As for the experimental part: (§2) For western-blotting in A375, A549 and MC-F7 cell lines, the detailed method was described in ref.[18] […] For western-blot in selected CRC cell lines, the cells were collected after treatment for indicated time and washed twice with cold PBS. Then cells were lysed in 1% Triton lysis buffer (50 mmol/L Tris-HCl, pH 7.4, 10 mmol/L EDTA, 100 mmol/L NaF, 150 mmol/L NaCl, 1% Triton X-100, 1 mmol/L PMSF 1 mmol/L Na3VO4 and 2 μg/mL aprotinin). After sonication and centrifugation, samples were quantified with the Lowry method. Next, all the protein samples were boiled at 95 °C for 5 min with 3× sampling buffer. After that, all the lysate samples were resolved by SDS polyacrylamide gel electrophoresis (SDS-PAGE) and followed by western blotting which means electronically transferred to nitrocellulose membranes. After blocking with 5% skim milk in TBST buffer (10 mM Tris-HCl pH 7.4, 150 mM NaCl, 0.1% Tween 20) at room temperature for 1 h, the blots were incubated with indicated antibodies shaking for 2 h, then overnight at 4 °C. Then the blots were washed four times with TBST buffer, and then incubated with secondary antibodies for 30 min at room temperature. After washing for another four times, the protein bands were detected with enhanced chemiluminescence reagent (SuperSignal Western Pico Chemiluminescent Substrate; Pierce, Rockford, IL, USA) and visualised with the Electrophoresis Gel Imaging Analysis System (DNR Bio-Imaging Systems, Jerusalem, Israel).
Two V600E mutant BRAF cell lines (RKO, HT-29) and two wild-type BRAF cell lines (DiFi, Caco-2) were treated with DMSO or increasing concentrations of AZ304 (0, 0.1, 1, 10, 100 μM), for 48 h (a) and 72 h (b). Viable cells were determined by MTT assay. c EdU incorporation assay. Four cells lines from (a) were treated with DMSO or indicated AZ304 for 24 h, followed by incubation with EdU and Hoechst in sequence. Hoechst 33342 (blue) and EdU (red) represent cell nuclei and nuclei of proliferative cells, respectively. The percentages of the EdU-positive cells are presented (right). Student’s t-tests were used for statistical analyses. Data are plotted as mean ± SD. *P < 0.05 vs. control; **P < 0.01 vs. control. d These four cells lines from (a) were treated with DMSO or 2 uM AZ304 for 6 h. Expression levels of phosphorylation ERK were analysed by Western blot. e BRAF mutant cell line RKO, and BRAF wild type cell line Caco-2 were treated with DMSO or 2 uM AZ304 for the indicated times. Expression levels of phosphorylation ERK were analysed by Western blot. […] Cell viability was determined by MTT assay
In general terms: In western blotting, separated proteins are transferred to a membrane and probed.

The subject of another test is A375 cells. Description: Western blot p-p38. Type of test: cell-based, human. The note with it: A375 (BRAF V600E), 75 min. As for the experimental part:
as §2, with “After blocking with 5% skim milk in TBST buffer (10 mM Tris-HCl pH 7.4, 150 mM NaCl, 0.1% Tween 20) at room temperature for 1 h, the blots were incubated with indicated antibodies shaking for 2 h, then overnight at 4 °C. Then the blots were washed four times with TBST buffer, and then incubated with secondary antibodies for 30 min at room temperature.” left out
Cells were incubated with DMSO or AZ304 for 75 min and p-ERK levels were determined using a p-ERK antibody based ELISA. […] Cells were incubated with DMSO or AZ304 (±EGF) for 75 min and p-ERK levels were determined using a p-ERK antibody based ELISA. […]

Where [2] appears, read: 2 μM AZ304, 10 μg/ml Cetuximab or combination, 36 h.

SMILES strings stand for the structures. pIC50: −log10 of the molar value.

Sequence of SRC (P12931 whole entry, species assumed): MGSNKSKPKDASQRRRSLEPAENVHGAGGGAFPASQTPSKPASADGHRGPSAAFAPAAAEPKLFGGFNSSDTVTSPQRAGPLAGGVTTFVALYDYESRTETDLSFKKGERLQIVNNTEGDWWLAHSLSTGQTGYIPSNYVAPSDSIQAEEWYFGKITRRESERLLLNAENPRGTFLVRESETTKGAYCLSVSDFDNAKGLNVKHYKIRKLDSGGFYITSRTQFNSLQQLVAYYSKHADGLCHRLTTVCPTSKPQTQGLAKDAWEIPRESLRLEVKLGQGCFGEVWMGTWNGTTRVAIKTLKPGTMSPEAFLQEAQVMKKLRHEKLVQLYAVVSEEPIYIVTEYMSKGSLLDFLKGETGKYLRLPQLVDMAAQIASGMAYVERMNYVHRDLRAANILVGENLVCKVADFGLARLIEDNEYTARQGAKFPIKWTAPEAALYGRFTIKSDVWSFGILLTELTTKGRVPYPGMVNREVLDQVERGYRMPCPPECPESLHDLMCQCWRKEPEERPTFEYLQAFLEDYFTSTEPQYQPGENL
Sequence of CSK (P41240 whole entry, species assumed): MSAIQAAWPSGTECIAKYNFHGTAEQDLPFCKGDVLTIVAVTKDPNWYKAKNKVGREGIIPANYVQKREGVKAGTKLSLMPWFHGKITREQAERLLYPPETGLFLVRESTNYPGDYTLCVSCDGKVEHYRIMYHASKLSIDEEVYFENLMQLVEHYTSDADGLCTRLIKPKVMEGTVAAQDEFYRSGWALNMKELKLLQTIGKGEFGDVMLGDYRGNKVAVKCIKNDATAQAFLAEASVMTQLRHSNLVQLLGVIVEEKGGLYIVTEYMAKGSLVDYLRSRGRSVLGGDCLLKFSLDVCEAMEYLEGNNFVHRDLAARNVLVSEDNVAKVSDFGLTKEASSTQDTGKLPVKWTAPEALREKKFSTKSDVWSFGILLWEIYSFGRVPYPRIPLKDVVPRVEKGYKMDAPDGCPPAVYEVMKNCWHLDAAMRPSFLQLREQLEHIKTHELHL
Sequence of EGFR (P00533 25-1210, species assumed): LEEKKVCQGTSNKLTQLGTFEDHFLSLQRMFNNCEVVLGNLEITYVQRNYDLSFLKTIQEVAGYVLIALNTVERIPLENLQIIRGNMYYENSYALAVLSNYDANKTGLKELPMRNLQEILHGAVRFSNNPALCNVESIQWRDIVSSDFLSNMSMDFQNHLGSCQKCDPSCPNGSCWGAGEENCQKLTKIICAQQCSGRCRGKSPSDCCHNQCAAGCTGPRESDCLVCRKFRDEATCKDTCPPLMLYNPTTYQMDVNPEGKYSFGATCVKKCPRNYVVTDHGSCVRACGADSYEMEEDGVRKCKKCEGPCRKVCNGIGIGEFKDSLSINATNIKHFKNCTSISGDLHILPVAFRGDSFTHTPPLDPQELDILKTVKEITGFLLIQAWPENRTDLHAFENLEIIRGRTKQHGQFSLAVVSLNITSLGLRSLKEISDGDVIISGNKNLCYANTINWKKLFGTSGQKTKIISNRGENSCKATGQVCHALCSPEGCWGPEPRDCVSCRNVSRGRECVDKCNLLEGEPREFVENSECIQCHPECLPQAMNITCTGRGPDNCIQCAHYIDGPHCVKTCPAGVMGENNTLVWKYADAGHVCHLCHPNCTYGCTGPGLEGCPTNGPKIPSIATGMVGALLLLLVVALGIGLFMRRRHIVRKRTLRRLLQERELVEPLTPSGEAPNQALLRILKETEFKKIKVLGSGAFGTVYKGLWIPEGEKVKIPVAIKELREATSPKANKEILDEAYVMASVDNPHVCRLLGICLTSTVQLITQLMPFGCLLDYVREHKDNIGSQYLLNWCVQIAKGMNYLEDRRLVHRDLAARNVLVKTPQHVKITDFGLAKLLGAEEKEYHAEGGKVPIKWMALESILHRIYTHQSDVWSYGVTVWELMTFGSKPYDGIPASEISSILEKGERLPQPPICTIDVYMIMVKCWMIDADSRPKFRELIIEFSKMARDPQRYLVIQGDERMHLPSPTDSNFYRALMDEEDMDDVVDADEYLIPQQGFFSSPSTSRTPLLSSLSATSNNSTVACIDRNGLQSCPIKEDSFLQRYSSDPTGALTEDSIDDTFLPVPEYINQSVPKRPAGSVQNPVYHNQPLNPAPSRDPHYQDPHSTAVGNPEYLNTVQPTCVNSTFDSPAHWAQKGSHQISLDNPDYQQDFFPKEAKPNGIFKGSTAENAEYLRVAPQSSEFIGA
Sequence of IGF1R (P08069 31-1367, species assumed): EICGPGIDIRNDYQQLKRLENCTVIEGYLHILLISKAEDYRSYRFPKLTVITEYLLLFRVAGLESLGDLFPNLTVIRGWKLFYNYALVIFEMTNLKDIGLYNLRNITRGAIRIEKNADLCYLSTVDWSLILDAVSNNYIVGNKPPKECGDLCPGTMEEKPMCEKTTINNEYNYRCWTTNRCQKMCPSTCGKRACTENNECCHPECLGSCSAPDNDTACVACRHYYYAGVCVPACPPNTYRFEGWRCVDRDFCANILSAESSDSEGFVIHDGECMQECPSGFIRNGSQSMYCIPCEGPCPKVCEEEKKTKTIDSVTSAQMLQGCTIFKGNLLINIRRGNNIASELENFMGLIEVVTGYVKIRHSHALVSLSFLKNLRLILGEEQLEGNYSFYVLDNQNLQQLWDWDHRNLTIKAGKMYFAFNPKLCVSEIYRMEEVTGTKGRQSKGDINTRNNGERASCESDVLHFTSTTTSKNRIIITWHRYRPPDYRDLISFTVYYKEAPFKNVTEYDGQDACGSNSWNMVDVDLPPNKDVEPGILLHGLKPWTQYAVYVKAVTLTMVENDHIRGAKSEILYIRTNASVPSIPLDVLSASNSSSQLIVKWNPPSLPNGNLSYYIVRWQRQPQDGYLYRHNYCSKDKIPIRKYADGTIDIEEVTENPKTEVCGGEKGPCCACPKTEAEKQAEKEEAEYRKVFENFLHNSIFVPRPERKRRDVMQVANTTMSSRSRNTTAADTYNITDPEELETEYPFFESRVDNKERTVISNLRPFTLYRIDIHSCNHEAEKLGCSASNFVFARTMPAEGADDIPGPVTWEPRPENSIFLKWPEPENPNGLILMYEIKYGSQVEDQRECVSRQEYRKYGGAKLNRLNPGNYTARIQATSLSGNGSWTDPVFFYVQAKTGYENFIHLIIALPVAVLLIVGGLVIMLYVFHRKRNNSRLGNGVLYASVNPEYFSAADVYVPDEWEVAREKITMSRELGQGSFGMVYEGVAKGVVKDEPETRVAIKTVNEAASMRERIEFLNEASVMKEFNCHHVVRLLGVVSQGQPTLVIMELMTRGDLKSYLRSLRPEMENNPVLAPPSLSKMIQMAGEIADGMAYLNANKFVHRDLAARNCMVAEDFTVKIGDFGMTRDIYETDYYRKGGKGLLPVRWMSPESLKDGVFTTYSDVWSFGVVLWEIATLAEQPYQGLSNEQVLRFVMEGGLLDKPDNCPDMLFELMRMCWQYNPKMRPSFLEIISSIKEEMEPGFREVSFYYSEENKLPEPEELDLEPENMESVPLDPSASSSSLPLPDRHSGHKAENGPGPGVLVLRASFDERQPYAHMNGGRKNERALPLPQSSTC
Sequence of FGFR (P11362 22-822): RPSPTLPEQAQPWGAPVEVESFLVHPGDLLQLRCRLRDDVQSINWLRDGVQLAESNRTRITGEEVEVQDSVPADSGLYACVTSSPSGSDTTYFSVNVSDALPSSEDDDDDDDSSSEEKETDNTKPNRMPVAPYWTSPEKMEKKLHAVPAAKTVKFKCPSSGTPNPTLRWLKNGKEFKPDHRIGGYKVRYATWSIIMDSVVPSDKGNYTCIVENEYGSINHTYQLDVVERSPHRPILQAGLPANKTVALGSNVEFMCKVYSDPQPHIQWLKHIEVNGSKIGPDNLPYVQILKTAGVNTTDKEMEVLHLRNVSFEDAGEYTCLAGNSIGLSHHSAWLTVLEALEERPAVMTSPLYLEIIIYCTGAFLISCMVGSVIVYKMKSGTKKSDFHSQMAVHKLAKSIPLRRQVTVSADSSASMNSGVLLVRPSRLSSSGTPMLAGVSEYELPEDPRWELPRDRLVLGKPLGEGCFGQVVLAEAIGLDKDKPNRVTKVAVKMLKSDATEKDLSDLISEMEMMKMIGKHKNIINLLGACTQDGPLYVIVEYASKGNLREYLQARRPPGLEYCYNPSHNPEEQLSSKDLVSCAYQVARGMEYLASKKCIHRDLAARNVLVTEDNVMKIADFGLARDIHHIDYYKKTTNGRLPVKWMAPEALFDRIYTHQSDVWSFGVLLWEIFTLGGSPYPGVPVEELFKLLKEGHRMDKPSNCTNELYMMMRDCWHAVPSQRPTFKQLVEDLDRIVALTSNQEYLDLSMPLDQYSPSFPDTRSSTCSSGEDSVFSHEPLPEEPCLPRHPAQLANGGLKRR

Consider `COc1ccc2c(Nc3cc(NC(=O)c4cccc(C(C)(C)C#N)c4)ccc3C)ncnc2c1` [AZ304], for which the pIC50 is under 5.00 on SRC; 5.15 on CSK; under 5.00 at EGFR; under 5.00 against IGF1R; under 5.00 against FGFR. In addition, the “BRAF, p-ERK, p-AKT and p-mTOR levels” value in test [1] (setting [2]) is given as “decreased”. The “EGFR phosphorylation (p-EGFR)” value in test [1] (setting [2]) is “increased”. Besides, the “phosphorylated SRC and STAT3” value in test [1] (setting [2]) is listed as “relatively reduced expression levels”. Also, in test [1] (2 μM AZ304, 10 μg/ml Cetuximab or combination, 48 h), the “cleaved caspase-9, caspase-3 and PARP” value is on record as “overtly increased levels”. In test [1] (2 uM AZ304, 6 h), the p-ERK levels result was “reduced p-ERK levels in all four CRC cell lines”. The “effect on p-p38” value with A375 cells is listed as “potently inhibited p-p38”.
